The results in this text go back to PMC5943477, “A Novel Enzyme Portfolio for Red Algal Polysaccharide Degradation in the Marine Bacterium Paraglaciecola hydrolytica S66^T Encoded in a Sizeable Polysaccharide Utilization Locus” (Frontiers in Microbiology, 2018).

Common to all, as to assay type: biochemical
For test [1], the target named is T1, Ph1631 (GH16) (Paraglaciecola hydrolytica, UniProt A0A136A0U8).
T1 construct: gene AX660_11645; full gene without any predicted signal peptide, pET22b NdeI/XhoI, E. coli BL21(DE3) crude lysate
T1 sequence (A0A136A0U8 20-293): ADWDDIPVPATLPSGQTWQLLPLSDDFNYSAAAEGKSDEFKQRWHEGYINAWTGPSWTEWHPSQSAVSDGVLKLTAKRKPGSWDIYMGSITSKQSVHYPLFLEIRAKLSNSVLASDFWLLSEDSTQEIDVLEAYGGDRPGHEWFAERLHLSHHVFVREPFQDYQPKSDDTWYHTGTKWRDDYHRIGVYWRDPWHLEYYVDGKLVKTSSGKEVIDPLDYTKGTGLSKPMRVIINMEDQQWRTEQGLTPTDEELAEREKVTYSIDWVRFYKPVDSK
The test is described as follows: TLC of hydrolysis products from agarose, crude recombinant lysate. The conditions noted are these: 25 °C overnight, pH 8; agarose 0.05% w/v.

Test [2] concerns the target T2, Ph1664 (GH16) (Paraglaciecola hydrolytica, UniProt A0A136A0V5).
T2 construct: gene AX660_11805; full gene without any predicted signal peptide, pET9a-USER vector (octa-His tag), E. coli BL21(DE3) crude lysate
T2 sequence (A0A136A0V5 20-322): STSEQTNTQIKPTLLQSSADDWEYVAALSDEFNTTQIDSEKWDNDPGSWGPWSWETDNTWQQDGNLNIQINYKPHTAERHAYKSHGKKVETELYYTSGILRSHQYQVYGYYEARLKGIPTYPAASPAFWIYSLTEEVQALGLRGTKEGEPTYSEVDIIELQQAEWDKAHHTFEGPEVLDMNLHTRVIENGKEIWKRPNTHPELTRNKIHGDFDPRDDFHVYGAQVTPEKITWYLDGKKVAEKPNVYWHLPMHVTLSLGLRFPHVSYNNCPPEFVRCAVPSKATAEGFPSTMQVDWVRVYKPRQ
As to the kind of experiment: FACE (ANTS label) of hydrolysis products from κ-carrageenan and furcellaran, crude recombinant lysate. The note with it: 25 °C overnight, pH 8, 300 mM NaCl, 5 mM MgCl2; polysaccharide 0.05% w/v.

For test [3], the target named is T3, Ph1615 (GH117) (Paraglaciecola hydrolytica, UniProt A0A136A0T3).
T3 construct: gene AX660_11560; full gene without any predicted signal peptide, pET9a-USER vector (octa-His tag), E. coli BL21(DE3) crude lysate
T3 sequence (A0A136A0T3 1-359): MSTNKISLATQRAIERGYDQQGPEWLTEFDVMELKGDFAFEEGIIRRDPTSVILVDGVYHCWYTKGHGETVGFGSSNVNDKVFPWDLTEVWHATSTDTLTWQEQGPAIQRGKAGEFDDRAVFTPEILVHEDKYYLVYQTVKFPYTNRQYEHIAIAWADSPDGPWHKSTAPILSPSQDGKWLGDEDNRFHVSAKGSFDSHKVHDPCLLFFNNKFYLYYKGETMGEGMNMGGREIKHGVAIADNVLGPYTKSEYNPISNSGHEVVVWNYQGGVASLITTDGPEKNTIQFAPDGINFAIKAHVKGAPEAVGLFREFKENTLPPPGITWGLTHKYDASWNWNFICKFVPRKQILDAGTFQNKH
As to the kind of experiment: TLC of hydrolysis products, crude recombinant lysate. The note with it: 25 °C overnight, pH 8.

Test [4] concerns the target T4, Ph1675 (GH16) (Paraglaciecola hydrolytica, UniProt A0A136A0W8).
T4 construct: gene AX660_11860; full gene without any predicted signal peptide, pET9a-USER vector (octa-His tag), E. coli BL21(DE3) crude lysate
T4 sequence (A0A136A0W8 35-349): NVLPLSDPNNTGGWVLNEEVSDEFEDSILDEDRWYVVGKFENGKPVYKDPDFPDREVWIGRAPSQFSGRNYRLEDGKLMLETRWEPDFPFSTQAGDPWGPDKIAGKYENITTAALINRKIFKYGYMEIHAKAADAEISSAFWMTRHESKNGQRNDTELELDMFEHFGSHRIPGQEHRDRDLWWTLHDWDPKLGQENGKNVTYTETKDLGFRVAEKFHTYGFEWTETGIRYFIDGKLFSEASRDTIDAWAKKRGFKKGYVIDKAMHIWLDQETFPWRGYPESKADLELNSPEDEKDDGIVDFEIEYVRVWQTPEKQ
The test is described as follows: FACE (ANTS label) of hydrolysis products, crude recombinant lysate. The note with it: 25 °C overnight, pH 8, lysis buffer with 5 mM CaCl2.

In test [5] the target is T5, Ph1657 (GH42-like) (Paraglaciecola hydrolytica, UniProt A0A136A0V1).
T5 construct: gene AX660_11775; full gene without any predicted signal peptide, pET9a-USER vector (octa-His tag), E. coli BL21(DE3) crude lysate
T5 sequence (A0A136A0V1 21-810): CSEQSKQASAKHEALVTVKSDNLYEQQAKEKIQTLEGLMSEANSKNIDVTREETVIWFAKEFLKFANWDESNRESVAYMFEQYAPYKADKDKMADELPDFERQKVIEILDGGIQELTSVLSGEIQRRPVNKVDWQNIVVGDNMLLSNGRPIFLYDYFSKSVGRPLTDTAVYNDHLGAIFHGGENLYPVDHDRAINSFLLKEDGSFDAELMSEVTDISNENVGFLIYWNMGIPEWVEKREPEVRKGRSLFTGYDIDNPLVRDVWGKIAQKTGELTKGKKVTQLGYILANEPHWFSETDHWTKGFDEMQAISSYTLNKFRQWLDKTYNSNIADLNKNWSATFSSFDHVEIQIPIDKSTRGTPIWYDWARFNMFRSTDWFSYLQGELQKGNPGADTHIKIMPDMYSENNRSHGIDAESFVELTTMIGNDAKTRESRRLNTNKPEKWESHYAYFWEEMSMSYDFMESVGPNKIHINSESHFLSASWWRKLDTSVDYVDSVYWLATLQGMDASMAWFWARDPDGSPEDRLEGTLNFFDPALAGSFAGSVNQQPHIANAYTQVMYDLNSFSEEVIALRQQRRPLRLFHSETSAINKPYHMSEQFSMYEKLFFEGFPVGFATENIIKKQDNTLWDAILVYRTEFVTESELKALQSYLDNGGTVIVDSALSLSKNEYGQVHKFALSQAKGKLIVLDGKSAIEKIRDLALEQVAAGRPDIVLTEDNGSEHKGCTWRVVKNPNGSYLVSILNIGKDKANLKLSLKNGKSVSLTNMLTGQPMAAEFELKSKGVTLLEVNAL
The test is described as follows: FACE (AMAC label) of hydrolysis products, crude recombinant lysate. The note with it: 25 °C overnight, pH 8, oligosaccharide 2 μg/μL.

With `OC[C@H]1O[C@@H](O[C@H]2[C@H]3OC[C@@H]2O[C@@H](O[C@H]2[C@@H](O)[C@@H](CO)OC(O)[C@@H]2O)[C@H]3O)[C@H](O)[C@@H](O[C@@H]2O[C@H]3CO[C@@H]([C@@H]2O)[C@@H]3O)[C@H]1O` (stereo partly drawn) [neoagarotetraose], the “TLC of hydrolysis products from agarose, crude recombinant lysate” value in test [1] was “Ph1631 degraded agarose into primarily neoagarotetraose”.

As to `O=S(=O)(O)O[C@@H]1[C@H](O[C@H]2O[C@@H]3CO[C@@H]([C@H]3O)[C@H]2O)[C@@H](O)[C@H](O[C@@H]2[C@@H]3OC[C@H]2O[C@H](O[C@H]2[C@@H](OS(=O)(=O)O)[C@@H](CO)OC(O)[C@@H]2O)[C@@H]3O)O[C@@H]1CO` (stereo partly drawn) [κ-κ, neo-κ-carratetraose], the “FACE (ANTS label) of hydrolysis products from κ-carrageenan and furcellaran, cru” value in test [2] is recorded as “releasing hydrolysis products corresponding to neo-κ-carrabiose (κ), neo-κ-carratetraose (κ-κ)”.

In the case of `OC[C@H]1OC(O)[C@H](O)[C@@H](O[C@@H]2O[C@H]3CO[C@@H]([C@@H]2O)[C@@H]3O)[C@H]1O` (stereo partly drawn) [neoagarobiose], in test [3], the “TLC of hydrolysis products, crude recombinant lysate” value is “Ph1615 (GH117) was able to hydrolyze neoagarobiose yielding L-AHG and galactose”.

As for `O=S(=O)(O)O[C@@H]1[C@H](O[C@H]2O[C@@H]3CO[C@H]([C@H]2O)[C@H]3O[C@@H]2O[C@H](CO)[C@H](O)[C@H](O[C@H]3O[C@@H]4CO[C@@H]([C@H]4O)[C@H]3O)[C@H]2O)[C@@H](O)C(O)O[C@@H]1CO` (stereo partly drawn) [β-κ, β-κ tetrasaccharide], in test [4], the “FACE (ANTS label) of hydrolysis products, crude recombinant lysate” value was “it was found to degrade the substrate into the corresponding β- and κ-carrabiose units”. Also, the “FACE (AMAC label) of hydrolysis products, crude recombinant lysate” value in test [5] was “when tested on a commercial β-κ tetrasaccharide, this substrate was indeed hydrolyzed into (β) and (κ)”.

For the compound `O=S(=O)(O)O[C@@H]1[C@H](O[C@H]2O[C@@H]3CO[C@@H]([C@H]3O)[C@H]2O)[C@@H](O)C(O)O[C@@H]1CO` (stereo partly drawn) [κ, neo-κ-carrabiose], the “FACE (ANTS label) of hydrolysis products from κ-carrageenan and furcellaran, cru” value in test [2] is “releasing hydrolysis products corresponding to neo-κ-carrabiose (κ), neo-κ-carratetraose (κ-κ)”.
